Measured values as given in patent US8450354B2, “Substituted imidazo[1,2-b]pyridazine derivatives, pharmaceutical compositions, and methods of use as β-secretase inhibitors” (High Point Pharmaceuticals, LLC, priority 2010, dated 2013).

What follows are compounds tested against T1, BACE-1 enzyme (Homo sapiens, UniProt P56817) (assay: BACE Fluorescence Resonance Energy Transfer (FRET) Assay). Conditions: pH 4-4.5, 30 min pre-incubation, about 1.5 hours reaction, asterisk = mean.
T1 construct: purchased R & D Systems 931AS
T1 sequence (P56817 46-457 limits assumed): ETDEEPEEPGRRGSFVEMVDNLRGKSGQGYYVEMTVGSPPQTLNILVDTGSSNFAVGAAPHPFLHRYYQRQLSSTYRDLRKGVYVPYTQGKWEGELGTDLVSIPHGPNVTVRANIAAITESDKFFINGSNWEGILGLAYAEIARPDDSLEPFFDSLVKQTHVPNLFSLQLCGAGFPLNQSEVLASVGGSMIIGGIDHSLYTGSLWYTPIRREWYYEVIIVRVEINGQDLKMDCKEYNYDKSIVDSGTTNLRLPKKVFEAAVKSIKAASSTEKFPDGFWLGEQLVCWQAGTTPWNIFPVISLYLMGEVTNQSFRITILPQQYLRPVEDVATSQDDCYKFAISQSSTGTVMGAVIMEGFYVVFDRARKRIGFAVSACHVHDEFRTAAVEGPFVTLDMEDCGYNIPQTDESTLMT
Assay type: biochemical
Experimental: BACE Fluorescence Resonance Energy Transfer (FRET) Assay
In the following assay, the proteolytic activity of BACE is measured by observing cleavage of a fluorescent group from a peptide substrate containing a rhodamine fluorescent donor and a quenching acceptor.
The inhibitory activity of compounds of Formula (I) may be compared to a statine derived control inhibitor STA200 (MP Biomedical Cat. #STA-200). The cleavage reaction occurs when a BACE-1 substrate (Invitrogen, Cat. #P2986) was added to a reaction mixture containing BACE-1 enzyme (R & D Systems, Cat. #931AS) and allowed to proceed for about 1.5 hours. Fluorescence, used as a marker of BACE activity, is monitored using 540 nm excitation and 585 nm emission wavelengths (Envision, Perkin Elmer).
A typical assay reaction contains BACE-1 enzyme-in assay buffer (50 mM sodium acetate, pH 4-4.5, 0.01% CHAPS (3-[(3-Cholamidopropyl)dimethylammonio]-1-propanesulfonate), 0.0125% TritonX-100, 0.006% EDTA) which is pre-incubated for 30 minutes with test compound in 7.5% DMSO. The reaction is initiated with the addition of BACE-1 substrate in assay buffer and allowed to proceed for about 1.5 hours at room temperature. Assays are conducted in black 384-well microtiter plates and scanned at room temperature using 540 nm excitation and 585 nm emission wavelengths.
In some instances, the percent inhibition at a given concentration is reported instead of the IC50.

Row | Structure (SMILES) | IC50 [µM]
1 | O=C(Nc1nc2cc(-c3cc(F)cc(Cl)c3)ccc2[nH]1)c1cn2nc(OCC[C@@H](O)CO)ccc2n1 [Example 129] | 0.293
2 | CN(C)CCOc1ccc2nc(C(=O)Nc3nc4cc(-c5cc(F)cc(Cl)c5)ccc4[nH]3)cn2n1 [Example 15] | 0.272
3 | CN1CCN(CCOc2ccc3nc(C(=O)Nc4nc5cc(-c6cc(F)cc(Cl)c6)ccc5[nH]4)cn3n2)CC1 [Example 55] | 0.212
4 | N[C@H]1CCN(c2ccc3nc(C(=O)Nc4nc5cc(-c6cccc(C(F)(F)F)c6)ccc5[nH]4)cn3n2)C1 [Example 77] | 0.242
5 | O=C(Nc1nc2cc(C3CCCC3)ccc2[nH]1)c1cn2nc(N3CC[C@@H](O)C3)ccc2n1 [Example 95] | 0.431
6 | O=C(Nc1nc2cc(-c3cccc(OC(F)(F)F)c3)ccc2[nH]1)c1cn2nc(OCCN3CCCC3)ccc2n1 [Example 21] | 0.318
7 | O=C(Nc1nc2cc(-c3cccc(C(F)(F)F)c3)ccc2[nH]1)c1cn2nc(N3CCOCC3)ccc2n1 [Example 65] | 0.238
8 | O=C(Nc1nc2cc(-c3cccc(C(F)(F)F)c3)ccc2[nH]1)c1cn2nc(O[C@H]3CCCNC3)ccc2n1 [Example 75] | 0.36
9 | CCOCCOCCOc1ccc2nc(C(=O)Nc3nc4cc(-c5cccc(C(F)(F)F)c5)ccc4[nH]3)cn2n1 [Example 11] | 0.32
10 | CO[C@@H]1CCN(c2ccc3nc(C(=O)Nc4nc5cc(C6CCC(C)(C)CC6)ccc5[nH]4)cn3n2)C1 [Example 89] | 0.16
11 | O=C(Nc1nc2cc(-c3cc(F)cc(Cl)c3)ccc2[nH]1)c1cn2nc(OC3CCOCC3)ccc2n1 [Example 16] | 0.289
12 | O=C(Nc1nc2cc(-c3cccc(C(F)(F)F)c3)ccc2[nH]1)c1cn2nc(OCCNC3CCCCC3)ccc2n1 [Example 39] | 0.197
13 | CN(C)CCOCCOc1ccc2nc(C(=O)Nc3nc4cc(-c5cccc(C(F)(F)F)c5)ccc4[nH]3)cn2n1 [Example 59] | 0.194
14 | COC1CCN(c2ccc3nc(C(=O)Nc4nc5cc(C6CCC(C)(C)CC6)ccc5[nH]4)cn3n2)CC1 [Example 87] | 0.56
15 | CC(C)N(CCOc1ccc2nc(C(=O)Nc3nc4cc(-c5cc(F)cc(Cl)c5)ccc4[nH]3)cn2n1)C(C)C [Example 48] | 0.315
16 | CC1(C)CCC(c2ccc3[nH]c(NC(=O)c4cn5nc(C6CCNCC6)ccc5n4)nc3c2)CC1 [Example 82] | 1.07
17 | CN(C)CCCOc1ccc2nc(C(=O)Nc3nc4cc(-c5cc(F)cc(Cl)c5)ccc4[nH]3)cn2n1 [Example 17] | 0.171

Row | Structure (SMILES) | IC50 [µM]
18 | O=C(Nc1nc2cc(-c3cccc(C(F)(F)F)c3)ccc2[nH]1)c1cn2nc(N[C@H]3CCNC3)ccc2n1 [Example 78] | 0.337
19 | O=C(Nc1nc2cc(-c3cc(F)cc(Cl)c3)ccc2[nH]1)c1cn2nc(OCCN3CCCC3)ccc2n1 [Example 19] | 0.166
20 | O=C(Nc1nc2cc(-c3cccc(C(F)(F)F)c3)ccc2[nH]1)c1cn2nc(OCCN3CCCC3)ccc2n1 [Example 71] | 0.327
21 | CN1CCC(Oc2ccc3nc(C(=O)Nc4nc5cc(-c6cc(F)cc(Cl)c6)ccc5[nH]4)cn3n2)CC1 [Example 18] | 0.219
22 | CN(C)CCOCCOc1ccc2nc(C(=O)Nc3nc4cc(-c5cccc(OC(F)(F)F)c5)ccc4[nH]3)cn2n1 [Example 56] | 0.176
23 | O=C(Nc1nc2cc(-c3cccc(OC(F)(F)F)c3)ccc2[nH]1)c1cn2nc(OCCN3CCCCCC3)ccc2n1 [Example 34] | 0.27
24 | O=C(Nc1nc2cc(-c3cccc(C(F)(F)F)c3)ccc2[nH]1)c1cn2nc(N3CCNCC3)ccc2n1 [Example 80] | 0.2
25 | O=C(Nc1nc2cc(-c3cccc(OC(F)(F)F)c3)ccc2[nH]1)c1cn2nc(OCCNC3CCCCC3)ccc2n1 [Example 33] | 0.278
26 | CC(C)(C)NCCOc1ccc2nc(C(=O)Nc3nc4cc(-c5cc(F)cc(Cl)c5)ccc4[nH]3)cn2n1 [Example 52] | 0.223
27 | O=C(Nc1nc2cc(-c3cc(F)cc(Cl)c3)ccc2[nH]1)c1cn2nc(OCCNC3CCCCC3)ccc2n1 [Example 51] | 0.173
28 | CN(C)CCN(C)CCOc1ccc2nc(C(=O)Nc3nc4cc(-c5cccc(OC(F)(F)F)c5)ccc4[nH]3)cn2n1 [Example 36] | 0.332
29 | CCC[C@H](O)COc1ccc2nc(C(=O)Nc3nc4cc(-c5cc(F)cc(Cl)c5)ccc4[nH]3)cn2n1 [Example 125] | 1.18
30 | CC1(C)CCC(c2ccc3[nH]c(NC(=O)c4cn5nc(OC6CCC(O)CC6)ccc5n4)nc3c2)CC1 (centres unmarked) [Example 88] | 0.476
31 | CN(C)CCOc1ccc2nc(C(=O)Nc3nc4cc(-c5ccc(Cl)c(C(F)(F)F)c5)ccc4[nH]3)cn2n1 [Example 63] | 0.361
32 | CN1CCC[C@H]1COc1ccc2nc(C(=O)Nc3nc4cc(-c5cc(F)cc(Cl)c5)ccc4[nH]3)cn2n1 [Example 68] | 0.344
33 | CCN(CC)CCCOc1ccc2nc(C(=O)Nc3nc4cc(-c5cc(F)cc(Cl)c5)ccc4[nH]3)cn2n1 [Example 20] | 0.205
34 | CC1CCC(c2ccc3[nH]c(NC(=O)c4cn5nc(N6CCOCC6)ccc5n4)nc3c2)CC1 (centres unmarked) [Example 81] | 0.393

Now from value to compound:

Row | IC50 [µM] | Structure (SMILES)
35 | 0.241 | CN(CCOc1ccc2nc(C(=O)Nc3nc4cc(-c5cccc(C(F)(F)F)c5)ccc4[nH]3)cn2n1)c1ccccn1 [Example 44]
36 | 0.335 | COCCOc1ccc2nc(C(=O)Nc3nc4cc(-c5ccc(Cl)c(C(F)(F)F)c5)ccc4[nH]3)cn2n1 [Example 62]
37 | 0.253 | CC(C)NCCOc1ccc2nc(C(=O)Nc3nc4cc(-c5cccc(OC(F)(F)F)c5)ccc4[nH]3)cn2n1 [Example 28]
38 | 0.272 | CC(C)OCCOc1ccc2nc(C(=O)Nc3nc4cc(-c5cccc(C(F)(F)F)c5)ccc4[nH]3)cn2n1 [Example 23]
39 | 0.322 | CN(CCOc1ccc2nc(C(=O)Nc3nc4cc(-c5cccc(OC(F)(F)F)c5)ccc4[nH]3)cn2n1)c1ccccn1 [Example 37]
40 | 0.291 | CC(C)(C)NCCOc1ccc2nc(C(=O)Nc3nc4cc(-c5cccc(C(F)(F)F)c5)ccc4[nH]3)cn2n1 [Example 24]
41 | 0.28 | COCCOc1ccc2nc(C(=O)Nc3nc4cc(-c5cccc(C(F)(F)F)c5)ccc4[nH]3)cn2n1 [Example 8, 6-(2-Methoxy-ethoxy)-imidazo[1,2-b]pyridazine-2-carboxylic acid [5-(3-trifluoromethyl-phenyl)-1H-benzoimidazol-2-yl]-amide]
42 | 0.152 | CNCCOc1ccc2nc(C(=O)Nc3nc4cc(-c5cc(F)cc(Cl)c5)ccc4[nH]3)cn2n1 [Example 14]
43 | 0.27 | CC(C)(C)NCCOc1ccc2nc(C(=O)Nc3nc4cc(-c5cccc(OC(F)(F)F)c5)ccc4[nH]3)cn2n1 [Example 30]
44 | 1.38 | CO[C@@H]1CCN(c2ccc3nc(C(=O)Nc4nc5cc(-c6ccc(C)s6)ccc5[nH]4)cn3n2)C1 [Example 90]
45 | 0.244 | Cc1ccc2nc(C(=O)Nc3nc4cc(OCc5ccccc5)ccc4[nH]3)cn2n1 [Example 6]
46 | 0.23 | N[C@@H]1CCN(c2ccc3nc(C(=O)Nc4nc5cc(-c6cccc(C(F)(F)F)c6)ccc5[nH]4)cn3n2)C1 [Example 76]
47 | 0.368 | CCOCCCOc1ccc2nc(C(=O)Nc3nc4cc(-c5cccc(C(F)(F)F)c5)ccc4[nH]3)cn2n1 [Example 13]
48 | 0.249 | CCOCCOc1ccc2nc(C(=O)Nc3nc4cc(-c5cccc(C(F)(F)F)c5)ccc4[nH]3)cn2n1 [Example 22]
49 | 0.328 | O=C(O)CCNc1ccc2nc(C(=O)Nc3nc4cc(-c5cccc(Cl)c5)ccc4[nH]3)cn2n1 [Example 96]
50 | 0.161 | O=C(O)COc1ccc2nc(C(=O)Nc3nc4cc(-c5cccc(C(F)(F)F)c5)ccc4[nH]3)cn2n1 [Example 97]
51 | 0.346 | C[C@@H](N)COc1ccc2nc(C(=O)Nc3nc4cc(-c5cccc(C(F)(F)F)c5)ccc4[nH]3)cn2n1 [Example 73]
52 | 0.14 | NCCOc1ccc2nc(C(=O)Nc3nc4cc(-c5cccc(C(F)(F)F)c5)ccc4[nH]3)cn2n1 [Example 60]
53 | 0.216 | CN(C)CCCOc1ccc2nc(C(=O)Nc3nc4cc(-c5cccc(C(F)(F)F)c5)ccc4[nH]3)cn2n1 [Example 72]
54 | 0.219 | C[C@H](N)COc1ccc2nc(C(=O)Nc3nc4cc(-c5cccc(C(F)(F)F)c5)ccc4[nH]3)cn2n1 [Example 74]
55 | 0.105 | COc1ccc2nc(C(=O)Nc3nc4cc(OCc5ccccc5)ccc4[nH]3)cn2n1 [Example 4]
56 | 0.27 | CC(C)NCCOc1ccc2nc(C(=O)Nc3nc4cc(-c5cccc(C(F)(F)F)c5)ccc4[nH]3)cn2n1 [Example 38]
57 | 0.334 | C[C@@H](CO)Oc1ccc2nc(C(=O)Nc3nc4cc(-c5cccc(OC(F)(F)F)c5)ccc4[nH]3)cn2n1 [Example 103]
58 | 0.365 | CC(C)N(CCOc1ccc2nc(C(=O)Nc3nc4cc(-c5cccc(C(F)(F)F)c5)ccc4[nH]3)cn2n1)C(C)C [Example 42]
59 | 0.268 | CN(C)CC(O)COc1ccc2nc(C(=O)Nc3nc4cc(-c5cccc(C(F)(F)F)c5)ccc4[nH]3)cn2n1 (centres unmarked) [Example 110]
60 | 0.381 | CNCCOc1ccc2nc(C(=O)Nc3nc4cc(-c5cccc(C(F)(F)F)c5)ccc4[nH]3)cn2n1 [Example 70]
61 | 2.34 | CO[C@H]1CCN(c2ccc3nc(C(=O)Nc4nc5cc(-c6ccc(C)s6)ccc5[nH]4)cn3n2)C1 [Example 91]
62 | 0.095 | COc1ccc2nc(C(=O)Nc3nc4cc(OCc5ccc(C(F)(F)F)cc5)ccc4[nH]3)cn2n1 [Example 5]
